Reference: BindingDB's records for PubMed 39481228 (Anhui Medical University)

Experiments:
Cholinesterase [1] = biological target: T1, Cholinesterase (Homo sapiens, UniProt P06276); experiment: Binding affinity to human BuChE (unknown origin) assessed as overall carbamolyation rate at 0.025 to 100 uM incubated for 60 mins
Cholinesterase [2] = biological target: T1, Cholinesterase; experiment: Binding affinity to human BuChE (unknown origin) assessed as overall carbamolyation rate at 100 to 1000 nM incubated for 60 mins

T1 sequence (P06276 whole entry): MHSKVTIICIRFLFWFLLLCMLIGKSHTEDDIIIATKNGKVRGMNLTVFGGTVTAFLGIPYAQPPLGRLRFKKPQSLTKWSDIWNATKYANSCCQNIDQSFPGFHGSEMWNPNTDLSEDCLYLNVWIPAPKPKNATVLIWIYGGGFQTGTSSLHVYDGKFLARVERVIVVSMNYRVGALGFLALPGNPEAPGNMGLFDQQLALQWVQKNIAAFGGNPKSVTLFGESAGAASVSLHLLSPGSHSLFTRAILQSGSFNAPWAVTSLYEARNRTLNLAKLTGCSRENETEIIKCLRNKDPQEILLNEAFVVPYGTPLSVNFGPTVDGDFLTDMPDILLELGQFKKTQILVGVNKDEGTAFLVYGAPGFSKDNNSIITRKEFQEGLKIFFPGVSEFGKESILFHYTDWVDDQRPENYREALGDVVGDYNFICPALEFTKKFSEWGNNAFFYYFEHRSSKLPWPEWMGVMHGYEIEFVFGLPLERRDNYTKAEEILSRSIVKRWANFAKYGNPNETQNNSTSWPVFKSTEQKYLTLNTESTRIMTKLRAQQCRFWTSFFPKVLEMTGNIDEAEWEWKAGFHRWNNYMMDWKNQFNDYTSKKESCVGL

Compound | Ki (Cholinesterase [1]) [nM] | Ki (Cholinesterase [2]) [nM]
COc1ccc(C(C)=O)c(OC(=O)N2CCCCC2)c1 | 0.31 | –
COc1ccc(C(C)=O)c(OC(=O)N(C)Cc2ccc(F)cc2)c1 | – | 2.8
